Results as given in ChEMBL document CHEMBL5052832, “Inhibition of ngly1 for the treatment of cancer” (2021).
Active and inactive are the calls of the source. No cut-off for these calls is given here.

Columns and labels:
[1] = tested on: SK-MEL-2; test: Antiproliferative activity against human SK-MEL-2 cells at 10 to 1000 uM assessed as decrease in cell viability; assay type: functional, cell-based; conditions: dose 10-1000 µM
[2] = tested on: UACC-257; test: Antiproliferative activity against doxycycline-induced NGLY1 knocked down human UACC-257 cells at 20 uM in presence of dacarbazine assessed as decrease in growth inhibition after 72 hrs by MTT assay; assay type: functional, cell-based
[3] = Antiproliferative activity against human HDF418 cells at 10 to 1000 uM assessed as decrease in cell viability; assay type: toxicity, cell-based; conditions: hdf418, 1000 µM, dose 10-1000 µM
[4] = tested on: SK-MEL-2; test: Antiproliferative activity against human SK-MEL-2 cells assessed as decrease in cell viability in presence of dacarbazine; assay type: functional, cell-based
[5] = tested on: UACC-257; test: Antiproliferative activity against human UACC-257 cells at 10 to 1000 uM assessed as decrease in cell viability; assay type: functional, cell-based; conditions: dose 10-1000 µM
[6] = molecular target: T1, Peptide-N(4)-(N-acetyl-beta-glucosaminyl)asparagine amidase (Homo sapiens) (UniProt Q96IV0); test: Inhibition of NGLY1 in human UACC-257 cells at 200 uM assessed as increase in IL-29 production measured after 48 hrs; assay type: cell-based
T1 sequence (whole entry): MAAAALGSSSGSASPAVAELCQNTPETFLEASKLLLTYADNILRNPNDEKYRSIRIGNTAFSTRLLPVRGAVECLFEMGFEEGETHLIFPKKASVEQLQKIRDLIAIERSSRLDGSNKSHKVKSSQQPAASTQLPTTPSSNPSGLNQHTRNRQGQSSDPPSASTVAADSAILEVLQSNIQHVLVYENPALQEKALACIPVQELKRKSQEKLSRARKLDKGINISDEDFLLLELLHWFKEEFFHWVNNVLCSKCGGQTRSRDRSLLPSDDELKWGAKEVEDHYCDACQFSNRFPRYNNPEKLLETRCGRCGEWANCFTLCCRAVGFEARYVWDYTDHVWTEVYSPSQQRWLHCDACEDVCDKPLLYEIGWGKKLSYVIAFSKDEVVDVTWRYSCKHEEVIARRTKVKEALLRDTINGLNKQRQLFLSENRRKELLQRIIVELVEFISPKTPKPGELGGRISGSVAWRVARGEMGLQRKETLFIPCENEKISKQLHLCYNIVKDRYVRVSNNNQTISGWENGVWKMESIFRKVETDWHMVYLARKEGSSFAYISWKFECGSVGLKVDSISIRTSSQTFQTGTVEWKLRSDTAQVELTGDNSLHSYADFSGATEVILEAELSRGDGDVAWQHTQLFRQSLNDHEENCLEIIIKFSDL

[7] = molecular target: T1, Peptide-N(4)-(N-acetyl-beta-glucosaminyl)asparagine amidase (Homo sapiens); test: Inhibition of NGLY1 in human UACC-257 cells at 200 uM assessed as increase in IFN-beta1 production measured after 48 hrs; assay type: cell-based
[8] = molecular target: T1, Peptide-N(4)-(N-acetyl-beta-glucosaminyl)asparagine amidase (Homo sapiens); test: Inhibition of NGLY1 in human SK-MEL-2 cells at 200 uM assessed as increase in IFN-beta1 production measured after 48 hrs; assay type: cell-based
[9] = molecular target: T1, Peptide-N(4)-(N-acetyl-beta-glucosaminyl)asparagine amidase (Homo sapiens); test: Inhibition of NGLY1 in human HDF51 cells at 200 uM assessed as increase in IL-29 production measured after 48 hrs; assay type: cell-based
[10] = molecular target: T1, Peptide-N(4)-(N-acetyl-beta-glucosaminyl)asparagine amidase (Homo sapiens); test: Inhibition of NGLY1 in human HDF51 cells at 200 uM assessed as increase in IFN-beta1 production measured after 48 hrs; assay type: cell-based
[11] = molecular target: T1, Peptide-N(4)-(N-acetyl-beta-glucosaminyl)asparagine amidase (Homo sapiens); test: Inhibition of NGLY1 in human SK-MEL-2 cells at 200 uM assessed as increase in IL-29 production measured after 48 hrs; assay type: cell-based
[12] = Antiproliferative activity against human HDF51 cells at 10 to 1000 uM assessed as decrease in cell viability; assay type: toxicity, cell-based; conditions: hdf51, 1000 µM, dose 10-1000 µM
[13] = molecular target: T1, Peptide-N(4)-(N-acetyl-beta-glucosaminyl)asparagine amidase (Homo sapiens); test: Inhibition of NGLY1 in human HEK293T cells at 200 uM assessed as retention of N-glycans on full-length NFE2L1 measured by electrophoretic mobility shift assay; assay type: cell-based
[14] = tested on: SK-MEL-2; test: Antiproliferative activity against human SK-MEL-2 cells assessed as decrease in cell viability in presence of bortezomib; assay type: functional, cell-based
[15] = tested on: Malme-3M; test: Antiproliferative activity against doxycycline-induced NGLY1 knocked down human Malme-3M cells at 20 uM in presence of dacarbazine assessed as decrease in growth inhibition after 72 hrs by MTT assay; assay type: functional, cell-based

Activity [6]	Activity [7]	Activity [8]	Activity [9]	Activity [10]	Activity [11]	inhibition [13]	Structure (SMILES)	Activity [1]	Activity [2]	Activity [3]	Activity [4]	Activity [5]	Activity [12]	Activity [14]	Activity [15]
Active	Active	Active	inactive	inactive	Active		C=CC(=O)N[C@@H](CC(=O)N[C@@H]1O[C@H](COC(C)=O)[C@@H](OC(C)=O)[C@H](OC(C)=O)[C@H]1NC(C)=O)C(=O)NCCC	Active	Active	Non-Toxic	Active	Active	Non-Toxic		
							CCCNC(=O)[C@H](CC(=O)N[C@@H]1O[C@H](COC(C)=O)[C@@H](OC(C)=O)[C@H](OC(C)=O)[C@H]1NC(C)=O)NC(=O)/C=C/CN(C)C	Active	Active	Non-Toxic		Active	Non-Toxic		
Active	Active	Active			Active	Active	CCCNC(=O)[C@H](CC(=O)N[C@@H]1O[C@H](COC(C)=O)[C@@H](OC(C)=O)[C@H](OC(C)=O)[C@H]1NC(C)=O)NC(=O)CCl	Active	Active	Non-Toxic		Active	Non-Toxic	Active	Active
Active	Active	Active	inactive	inactive	Active		C=CS(=O)(=O)N[C@@H](CC(=O)N[C@@H]1O[C@H](COC(C)=O)[C@@H](OC(C)=O)[C@H](OC(C)=O)[C@H]1NC(C)=O)C(=O)NCCC	Active	Active	Non-Toxic		Active	Non-Toxic		
